Where a SMILES comes first, the peptide text is derived from it. [ ]: non-standard residue; d: D form. The star is where a group is joined. pGlu = O=C1CC[C@@H](C(=O)O)N1; dNle = CCCC[C@@H](N)C(=O)O; Aib = CC(C)(N)C(=O)O; tBu = CC(C)(C)*
Key:
[1] = Surrogate Activity-Based Plasma Stability Assay; type: in vitro ADME; settings: rat, Surrogate activity-based Plasma stability t½
Method: Stability half-life was then calculated by the formula, t½=0.693÷k Surrogate Activity-Based Plasma Stability Assay: […]
2) Calculate slope of value above and […]

[2] = biological target: T1, hAPJ (Homo sapiens, UniProt P35414); assay: hAPJ Calcium Flux Assay; type: cell-based; settings: Chem-5 APJ stable cells, FLIPR calcium flux stimulation; read-out: hAPJ Ca^2+ Flux EC50
T1 sequence (P35414 1-380): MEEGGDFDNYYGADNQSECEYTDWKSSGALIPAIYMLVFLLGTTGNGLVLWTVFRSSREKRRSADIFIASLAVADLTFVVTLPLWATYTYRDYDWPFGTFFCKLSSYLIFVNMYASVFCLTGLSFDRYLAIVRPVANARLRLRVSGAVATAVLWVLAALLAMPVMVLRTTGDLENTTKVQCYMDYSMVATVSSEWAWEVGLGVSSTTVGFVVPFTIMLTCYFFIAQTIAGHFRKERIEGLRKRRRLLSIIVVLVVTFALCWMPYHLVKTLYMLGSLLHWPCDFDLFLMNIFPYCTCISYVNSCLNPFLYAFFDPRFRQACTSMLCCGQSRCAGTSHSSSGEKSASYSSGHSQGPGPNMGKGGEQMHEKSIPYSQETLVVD
Method: Chem-5 APJ stable cells (Millipore # HTS068C) were plated in 384-well format with 10,000 cells/well in 25 ul growth media, then grown 24 hours in a 37° C. tissue culture incubator. One hour before the assay, 25 ul/well FLIPR Calcium 4 dye (Molecular Devices R8142) with 2.5 mM probenecid was added, and cells were incubated one hour in a 37° C. tissue culture incubator. Peptides were solubilized in HBSS, HEPES & 0.1% BSA buffer, and serially-diluted 10-fold, from 50 uM to […], in triplicate. FLIPR Tetra was used to add peptide to the cells with dye (1:5, for final peptide concentrations ranging from 10 uM to […]). FLIPR dye inside the cells emitted fluorescence after binding to calcium, while fluorescence from outside the cells was masked. Fluorescence was measured using 470-495 excitation and 515-575 emission wavelengths on the FLIPR Tetra. Readings were done for 3 minutes total, beginning 10 seconds before the peptide addition. Maximum-minimum values were calculated and plotted for each peptide concentration, and GraphPad prism software was used to calculate EC50 values at the curve inflection points, for calcium flux stimulation by peptides.

| half-life [1] | EC50 [2] | Compound |
| --- | --- | --- |
| > 16.7 h | 2.3 nM | CCCC[C@@H](NC(=O)[C@@H]1CCCCN1C(=O)CNC(=O)[C@H](CCCCN)NC(=O)[C@H](Cc1c[nH]cn1)NC(=O)[C@@H](C)NC(=O)[C@H](CC(C)C)NC(=O)[C@H](CCCNC(=N)N)NC(=O)[C@@H]1CCCN1C(=O)[C@H](CCCNC(=N)N)NC(=O)[C@@H]1CCC(=O)N1)C(=O)N[C@H](C)C(=O)N[C@H](Cc1ccccc1)C(=O)O [Example 1, pE-R-P-R-L-a-H-K-G-Pip-nle-a-f-OH] |
| > 16.7 h | 386 nM | CCCC[C@@H](NC(=O)[C@@H]1CCCN1C(=O)CNC(=O)[C@H](CCCCN)NC(=O)[C@@H](C)NC(=O)[C@H](CO)NC(=O)[C@@H](CC(C)C)NC(=O)[C@H](CCCNC(=N)N)NC(=O)[C@@H]1CCCN1C(=O)[C@H](CCCNC(=N)N)NC(=O)[C@@H]1CCC(=O)N1)C(=O)N[C@H](C)C(=O)N[C@H](Cc1ccccc1)C(=O)O [Example 2, pE-R-P-R-(D-Leu)-S-a-K-G-P-nle-a-f-OH] ([pGlu]RPR[dL]S[dA]KGP[dNle][dA][dF]-OH) |
| > 16.7 h | 797 nM | CCCC[C@@H](NC(=O)[C@@H]1CCCN1C(=O)CNC(=O)[C@H](CCCCN)NC(=O)[C@H](Cc1c[nH]cn1)NC(=O)[C@@H](C)NC(=O)[C@H](CC(C)C)NC(=O)[C@H](CCCNC(=N)N)NC(=O)[C@@H]1CCCN1C(=O)[C@@H](CCCNC(=N)N)NC(=O)[C@@H]1CCC(=O)N1)C(=O)N[C@H](C)C(=O)N[C@H](Cc1ccccc1)C(=O)O [Example 3, pE-r-P-R-L-a-H-K-G-P-nle-a-f-OH] |
| > 16.7 h | 79.9 nM | CCCC[C@@H](NC(=O)[C@@H]1CCCN1C(=O)CNC(=O)[C@@H](CCCCN)NC(=O)C(C)(C)NC(=O)[C@H](CO)NC(=O)[C@H](CC(C)C)NC(=O)[C@H](CCCNC(=N)N)NC(=O)[C@@H]1CCCN1C(=O)[C@H](CCCNC(=N)N)NC(=O)[C@@H]1CCC(=O)N1)C(=O)N[C@H](C)C(=O)N[C@H](Cc1ccccc1)C(=O)O [Example 5, pE-R-P-R-L-S-Aib-k-G-P-nle-a-f-OH] ([pGlu]RPRLS[Aib][dK]GP[dNle][dA][dF]-OH) |
| > 16.7 h | 3.1 nM | CCCC[C@@H](NC(=O)[C@@H]1CCCN1C(=O)CNC(=O)[C@H](CCCCN)NC(=O)[C@H](Cc1c[nH]cn1)NC(=O)[C@@H](C)NC(=O)[C@H](CC(C)C)NC(=O)[C@H](CCCNC(=N)N)NC(=O)[C@@H]1CCCN1C(=O)[C@H](CCCNC(=N)N)NC(=O)[C@@H]1CCC(=O)N1)C(=O)N[C@H](Cc1ccccc1)C(=O)O [Example 6, pE-R-P-R-L-a-H-K-G-P-nle-f-OH] |
| > 16.7 h | 693 nM | CCCC[C@@H](NC(=O)[C@@H]1CCCN1C(=O)CNC(=O)[C@H](CCCCN)NC(=O)[C@H](Cc1c[nH]cn1)NC(=O)[C@@H](CSC(C)(C)C)NC(=O)[C@H](CC(C)C)NC(=O)[C@H](CCCNC(=N)N)NC(=O)[C@@H]1CCCN1C(=O)[C@H](CCCNC(=N)N)NC(=O)[C@@H]1CCC(=O)N1)C(=O)N[C@H](C)C(=O)N[C@H](Cc1ccccc1)C(=O)O [Example 7, pE-R-P-R-L-c(tBu)-H-K-G-P-nle-a-f-OH] ([pGlu]RPRL[dC](tBu)HKGP[dNle][dA][dF]-OH) |
| > 16.7 h | 7.7 nM | CCCC[C@@H](NC(=O)[C@@H]1CCCN1C(=O)CNC(=O)[C@H](CCCCN)NC(=O)[C@H](Cc1c[nH]cn1)NC(=O)[C@@H](CC(=O)O)NC(=O)[C@H](CC(C)C)NC(=O)[C@H](CCCNC(=N)N)NC(=O)[C@@H]1CCCN1C(=O)[C@H](CCCNC(=N)N)NC(=O)[C@@H]1CCC(=O)N1)C(=O)N[C@H](C)C(=O)N[C@H](Cc1ccccc1)C(=O)O [Example 8, pE-R-P-R-L-d-H-K-G-P-nle-a-f-OH] ([pGlu]RPRL[dD]HKGP[dNle][dA][dF]-OH) |
| > 16.7 h | 9.9 nM | CCCC[C@@H](NC(=O)[C@@H]1CCCN1C(=O)CNC(=O)[C@H](CCCCN)NC(=O)[C@H](Cc1c[nH]cn1)NC(=O)[C@@H](C)NC(=O)[C@H](CC(C)C)NC(=O)[C@H](CCCNC(=N)N)NC(=O)[C@@H]1C[C@@H](c2ccccc2)CN1C(=O)[C@H](CCCNC(=N)N)NC(=O)[C@@H]1CCC(=O)N1)C(=O)N[C@H](C)C(=O)N[C@H](Cc1ccccc1)C(=O)O [Example 9, pE-R-(trans-4-PhP)-R-L-a-H-K-G-P-nle-a-f-OH] |
| > 16.7 h | 155 nM | CCCC[C@@H](NC(=O)[C@@H]1CCCN1C(=O)CNC(=O)[C@H](CCCCN)NC(=O)[C@H](Cc1c[nH]cn1)NC(=O)[C@@H](CC(C)C)NC(=O)[C@H](CC(C)C)NC(=O)[C@H](CCCNC(=N)N)NC(=O)[C@@H]1CCCN1C(=O)[C@H](CCCNC(=N)N)NC(=O)[C@@H]1CCC(=O)N1)C(=O)N[C@H](C)C(=O)N[C@H](Cc1ccccc1)C(=O)O [Example 10, pE-R-P-R-L-(D-Leu)-H-K-G-P-nle-a-f-OH] ([pGlu]RPRL[dL]HKGP[dNle][dA][dF]-OH) |
| > 16.7 h | 1060 nM | CCCC[C@@H](NC(=O)[C@@H]1CCCN1C(=O)CNC(=O)[C@H](CCCCN)NC(=O)[C@H](Cc1c[nH]cn1)NC(=O)[C@@H](CCCCN)NC(=O)[C@H](CC(C)C)NC(=O)[C@H](CCCNC(=N)N)NC(=O)[C@@H]1CCCN1C(=O)[C@H](CCCNC(=N)N)NC(=O)[C@@H]1CCC(=O)N1)C(=O)N[C@H](C)C(=O)N[C@H](Cc1ccccc1)C(=O)O [Example 11, pE-R-P-R-L-k-H-K-G-P-nle-a-f-OH] ([pGlu]RPRL[dK]HKGP[dNle][dA][dF]-OH) |
| > 16.7 h | 0.9 nM | CCCC[C@@H](NC(=O)[C@@H]1CCCN1C(=O)CNC(=O)[C@H](CCCCN)NC(=O)[C@H](Cc1c[nH]cn1)NC(=O)[C@@H](CO)NC(=O)[C@H](CC(C)C)NC(=O)[C@H](CCCNC(=N)N)NC(=O)[C@@H]1CCCN1C(=O)[C@H](CCCNC(=N)N)NC(=O)[C@@H]1CCC(=O)N1)C(=O)N[C@H](C)C(=O)N[C@H](Cc1ccccc1)C(=O)O [Example 12, pE-R-P-R-L-s-H-K-G-P-nle-a-f-OH] ([pGlu]RPRL[dS]HKGP[dNle][dA][dF]-OH) |
| > 16.7 h | 1.1 nM | CCCC[C@@H](NC(=O)[C@@H]1CCCN1C(=O)CNC(=O)[C@H](CCCCN)NC(=O)[C@H](Cc1c[nH]cn1)NC(=O)[C@@H](C)NC(=O)[C@H](CC(C)C)NC(=O)[C@H](CCCNC(=N)N)NC(=O)[C@@H]1CCCN1C(=O)[C@H](CCCNC(=N)N)NC(=O)[C@@H]1CCC(=O)N1)C(=O)N1CCC[C@@H]1C(=O)N[C@H](Cc1ccccc1)C(=O)O [Example 13, pE-R-P-R-L-a-H-K-G-P-nle-p-f-OH] ([pGlu]RPRL[dA]HKGP[dNle][dP][dF]-OH) |
| > 16.7 h | 2.1 nM | CCCC[C@@H](NC(=O)[C@@H]1CCCN1C(=O)CNC(=O)[C@H](CCCCN)NC(=O)C(C)(C)NC(=O)[C@@H](C)NC(=O)[C@H](CC(C)C)NC(=O)[C@H](CCCNC(=N)N)NC(=O)[C@@H]1CCCN1C(=O)[C@H](CCCNC(=N)N)NC(=O)[C@@H]1CCC(=O)N1)C(=O)N[C@H](C)C(=O)N[C@H](Cc1ccccc1)C(=O)O [Example 15, pE-R-P-R-L-a-Aib-K-G-P-nle-a-f-OH] ([pGlu]RPRL[dA][Aib]KGP[dNle][dA][dF]-OH) |
| 2.04 h | 66.5 nM | CCCC[C@@H](NC(=O)[C@@H]1CCCN1C(=O)CNC(=O)[C@H](CCCCN)NC(=O)[C@H](Cc1c[nH]cn1)NC(=O)[C@@H](C)NC(=O)[C@H](CC(C)C)NC(=O)[C@H](CCCNC(=N)N)NC(=O)[C@@H]1CCCN1C(=O)[C@H](CCCNC(=N)N)NC(=O)[C@@H]1CCC(=O)N1)C(=O)N[C@@H](Cc1ccccc1)C(=O)O [Example 18, pE-R-P-R-L-a-H-K-G-P-nle-F-OH] ([pGlu]RPRL[dA]HKGP[dNle]F-OH) |
| > 16.7 h | 169 nM | CCCC[C@@H](NC(=O)[C@@H]1CCCN1C(=O)CNC(=O)[C@H](CCCCN)NC(=O)[C@H](Cc1c[nH]cn1)NC(=O)[C@@H](C)NC(=O)[C@H](CC(C)C)NC(=O)[C@H](CCCNC(=N)N)NC(=O)[C@@H]1CCCN1C(=O)[C@H](CCCNC(=N)N)NC(=O)[C@@H]1CCC(=O)N1)C(=O)N[C@H](CCC(=O)O)C(=O)N[C@H](Cc1ccccc1)C(=O)O [Example 19, pE-R-P-R-L-a-H-K-G-P-nle-e-f-OH] ([pGlu]RPRL[dA]HKGP[dNle][dE][dF]-OH) |

| Compound | half-life [1] | EC50 [2] |
| --- | --- | --- |
| CCCC[C@@H](NC(=O)[C@@H]1CCCN1C(=O)CNC(=O)[C@H](CCCCN)NC(=O)[C@H](Cc1c[nH]cn1)NC(=O)[C@@H](C)NC(=O)[C@H](CC(C)C)NC(=O)[C@H](CCCNC(=N)N)NC(=O)[C@@H]1CCCN1C(=O)[C@H](CCCNC(=N)N)NC(=O)[C@@H]1CCC(=O)N1)C(=O)NCCc1ccccc1 [Example 32, pE-R-P-R-L-a-H-K-G-P-nle-NH(Phenethyl)] | 0.795 h | – |

Reference: patent US8921307B2, “Synthetic linear apelin mimetics for the treatment of heart failure” (priority 2012, dated 2014)
